Experimental data taken from US20260115209A1, “COMBINATION THERAPY INCLUDING COX-2 INHIBITOR FOR THE TREATMENT OF CANCER” (THE REGENTS OF THE UNIVERSITY OF CALIFORNIA, priority 2022, published 2026).

Test system: SRC
Assay: High throughput kinase-activity mapping (HT-KAM) of treated cell extracts
Type: cell-based
Conditions: WiDr cells treated 8 hours with vemurafenib ± gefitinib or cetuximab; FIG. 1B
Description: For samples to be analyzed with the HT-KAM platform, cells at ˜85% confluency were washed three times with cold PBS and lysed with freshly prepared 1× cell lysis buffer (1 ml per 2.5×10^6 cells) (lOX Cell Lysis Buffer, Cell Signaling; cat. #9803) complemented with 1× of Halt Protease & Phosphatase (100×, ThermoScientific; cat. #1861281). Cell lysates were collected and spun down at 14,000 rpm for 15 min at 4° C. and supernatants stored at −80° C. For samples to be analyzed by western blot, cell lysates were prepared with RIPA lysis buffer (150 mM NaCl, 0.1% SDS, 1% Nonidet P40, 1% sodium deoxycholate and 10 mM sodium phosphate, pH 7.2) supplemented with protease and phosphatase inhibitors. After clearing by centrifugation at 12,000 rpm for 10 minutes at 4° C., the lysates were analyzed as described in the respective experiments.
This high throughput kinase-activity mapping (HT-KAM) platform uses arrays of peptides that act as sensors of phosphorylation activity (7). The phospho-catalytic signature of samples is established from simultaneously occurring ATP-consumption tests measured in the presence of individual peptides that are experimentally isolated from each other. […] Luminescence is acquired using the Synergy 2 Multi-Mode Microplate Reader from BioTek. Luminescence data are inversely correlated with the amount of kinase activity. […]

CCCS(=O)(=O)Nc1ccc(F)c(C(=O)c2c[nH]c3ncc(-c4ccc(Cl)cc4)cc23)c1F [vemurafenib, N-[3-[5-(4-chlorophenyl)-1H-pyrrolo[2,3-b]pyridine-3-carbonyl]-2,4-difluorophenyl]propane-1-sulfonamide]
SRC kinase activity: most significantly increased kinase activity
